This is an account of results in ChEMBL document CHEMBL5390223, “Strategies for the Discovery of Oxazolidinone Antibacterial Agents: Development and Future Perspectives” (J Med Chem, 2023).

The structures appear in SMILES notation. Values after ≈ are worked out from the molar mass of the structure shown.

Assay [1] has as its system Mycobacterium tuberculosis variant bovis. As to the kind of experiment: Antimycobacterial activity against Mycobacterium tuberculosis H37Rv assessed as reduction in bacterial growth by MABA assay. Type of assay: functional. (In general: Resazurin is reduced to fluorescent resorufin, in cell work by metabolically active cells.)
Assay [2] shares this test system. The assay can be described thus: Antimycobacterial activity against Mycobacterium tuberculosis H37Rv assessed as reduction in bacterial cell growth. Type of assay: functional.

`CC(=O)NC[C@H]1CN(c2ccc(N3CCOCC3)c(F)c2)C(=O)O1` [LINEZOLID]: the MIC (commonly the smallest concentration in the dilution series that meets the test's criterion for growth inhibition) in assay [1] amounted to 0.5 µg/mL (≈ 1.48 µM).
Turning to `CC(=O)NC[C@H]1CN(c2ccc(N3CCSCC3)c(F)c2)C(=O)O1` [SUTEZOLID], in assay [2], the MIC stood at 0.125 µg/mL (≈ 0.354 µM).
